Several values for one entry are separate records, joined by “and”; a condition that tells them apart may be missing. Equal entries are not always repeated. Where two headings read alike, the source gives them in different places. Each block holds one compound with its values, some of them ahead of it.
Experiments:
[1] = N-methylated analogue; cited from earlier work
MeWo = assay: Photocytotoxicity, MTT assay; type: cell-based, human; settings: for IC50: Homo sapiens, MeWo, light or radiation study
Description: (§1) For (photo)cytotoxicity assays, stock solutions of porphyrins were prepared in DMSO and dissolved in DMEM to the final concentrations. The porphyrin incubation time was 6h. Irradiation of the cells was with red light (λ = 643 nm) for 30 min (light dose, 3.6 J/cm^2). Nonirradiated cells were used to test the dark toxicity. All measurements were performed in three individual experiments, and the results are shown as the proliferation (%) of the cells and were calculated as IC50 values.
(§2) The cytotoxicity of (oxidopyridyl)porphyrins was assessed by an MTT assay on the HDF, MeWo and A375 cell lines after 6 h of incubation with porphyrins, without irradiation, or after 30 min of irradiation with red light (λ = 643 nm), and under conditions of normoxia or hypoxia. To induce hypoxia, 100 µM of CoCl2 was added at least two hours before the porphyrins. […] Oxygen is also one of the substrates for the activity of prolyl hydroxylases; therefore, in both cases, the result is the blockage of hydroxylation of HIF-1α and, consequently, its increase and stabilisation, which, in the case of CoCl2-induced hypoxia, can be maintained for several hours.

HDF = assay: Photocytotoxicity, MTT assay; type: cell-based, human; settings: Homo sapiens, HDF, light or radiation study
Description: as §1, §2

A375 = assay: Photocytotoxicity, MTT assay; type: cell-based, human; settings: for IC50: Homo sapiens, A-375, light or radiation study
Description: as §1, §2

[2] = cited from earlier work; for ΦISC: N-methyl porphyrin analogues; for τT (lifetime of 3PS*): N-methylated counterparts
HIF-1α = assay: Hypoxia induction with CoCl2, Western blot; type: cell-based, human; settings: A375 cell line, 100 μM CoCl2 in DMEM, 1 and 2 h
Description: The cells were seeded into 12-well plates at a concentration of 10^5 cells/well. After the cells had reached full morphology (approx. 48 h), the medium was replaced with fresh medium containing cobalt(II) chloride (CoCl2) at a concentration of 100 μM, followed by incubation at 37 °C for 1 and 2 h. In the control sample, fresh medium without CoCl2 was added. After the incubation, cells were kept on ice and washed with ice-cold 1x PBS. After removing the 1x PBS, the cells were lysed with ice-cold radio-immunoprecipitation assay buffer (RIPA) buffer (50 mM Tris, 150 mM NaCl, 0.5% sodium deoxycholate, and 1% Triton X-100) and then incubated on ice for 30 min. The cells were centrifuged at 14,000 rpm at 4 °C for 10 min to separate the DNA in pellets and proteins in the supernatant. The supernatant was collected, and 4× Laemmli sample buffer (50 mM Tris pH 6.8, 10% glycerol, 2% SDS, 2% 2-mercaptoethanol, and 0.04% bromophenol blue) was added. The samples were heated at 95 °C for 10 min before separation on 10% polyacrylamide gels (SDS-PAGE). All gels were transferred to nitrocellulose membranes using the semi-dry transfer system at 100 V (Trans-Blot Turbo RTA Transfer kit, Bio Rad, Hercules, CA, USA, #1704270). […]

[3] = system: HDF, MeWo and A375 cell lines; assay: (Photo)cytotoxicity MTT assay, statements made for all cell lines; type: cell-based, human
Description: as §1, §2

[4] = Fluorescence decay by time-correlated single-photon counting (TC-SPC); type: physicochemical; settings: MeOH, N2, λex 405 nm
Description: Time-correlated single-photon counting (TC-SPC) was used to obtain information about fluorescence decays. All measurements were performed on an FS5 Edinburgh Instruments device with a pulsed laser at 405 nm wavelength, which was used for the excitation process (pulse duration 60 ps). Fluorescence signals were monitored at 660 nm over 1023 channels, with a time increment of ≈49 ps/channel. Porphyrins were dissolved in MeOH (HPLC grade), with the absorbance adjusted to 0.1 a.u. at the excitation wavelength, and the solution was degassed with N2 for 15 min before the measurements were taken. All the decays were collected until they reached 3000 counts in the peak channel. A scattering solution, a silica gel suspension in H2O, was used to obtain the instrument response function (IRF). The histograms were analysed using a nonlinear least-squares deconvolution method via the software implemented with the instrument.

[5] = Fluorescence spectra and fluorescence quantum yield in MeOH; type: physicochemical
Description: (§3) The absorption spectra of (oxidopyridyl)porphyrins were recorded in HPLC grade MeOH on a Cary UV 60 (Agilent Technologies, Santa Clara, CA, USA), in a wavelength range of 300–700 nm. The fluorescence spectra in HPLC grade MeOH were recorded on a Cary Eclipse (Agilent Technologies) in a wavelength range of 500–800 nm after excitation at the Soret band wavelength (λ ~ 420 nm). The slits of the spectrometer were set to a bandpass of 5 nm for the excitation and 5 nm for the emission. To calculate the fluorescence quantum yields, the measurements were conducted on an FS5 Edinburgh Instruments spectrometer. Prior to taking the measurements, the solutions were purged with high-purity N2 for at least 15 min. The absorbance of the solutions was set to A < 0.1 at 405 nm and 550 nm, which settings were used for the excitation process. Emission was recorded from 550 to 800 nm, with slits set to the bandpass corresponding to 2 nm for the excitation, and 3 nm for the emission. Fluorescence quantum yield (ΦFL) was calculated in comparison to the tetraphenylporphyrin (TPP; ΦFL = 0.11 [23]) as a standard, according to Equation (S1) and following an equation previously described elsewhere.

[6] = Laser flash photolysis (LFP), triplet excited state properties; type: physicochemical; settings: MeOH
Description: Laser flash photolysis (LFP) was performed using an LP980 transient absorption spectrometer (Edinburgh Instruments) equipped with a continuous beam (or pulse mode) Xenon lamp passing through the sample. A nanosecond Nd:YAG laser (Quantel, Q-smart 450, 5 ns pulse duration, 10 Hz, excitation wavelength 355 nm) was then used to excite the sample perpendicular to the lamp beam. The laser beam energy was adjusted to below 5 mJ. The ground state absorbance of the porphyrins in MeOH was adjusted to 0.20–0.25 at 355 nm (the laser excitation wavelength) and the solutions were purged with high-purity N2 for at least 15 min prior to taking the measurements. The samples were prepared for kq determination in an air atmosphere that was N2-purged for 15 min and O2-purged for 15 min before the measurements were taken. The ground state absorption spectra of the samples were also recorded after purging the sample with N2 or O2, and after transient absorption (TAS) measurements were taken to track the differences in every step of the measurement process to ensure that no photoproducts were formed. All measurements were performed at 25 °C in 1 cm quartz cuvettes. Laser flash photolysis was used to measure the kinetics of triplet state depopulation (τT) and triplet-triplet absorption spectra, and to calculate the intersystem crossing quantum yield (ΦISC) and quenching rate constants of triplet excited states by molecular oxygen (kq). To calculate ΦISC, the first step was the calculation of the molar absorption coefficient of the triplet state using the singlet depletion method, completing the first step according to Equation (S2). The ΦISC values were estimated by using a comparative method with TPP (ΦISC = 0.87 in toluene) as the standard. The ΦISC was calculated according to Equation (S3). Triplet excited state lifetimes were determined by fitting the triplet decays to the equation for the mixed first- and second-order decay, as previously described, and the quenching rate constant of a triplet excited state by molecular oxygen was calculated using the Stern–Volmer equation (Equation (S4)).

[7] = UV-Vis absorption spectra in MeOH; type: physicochemical
Description: as §3

[8] = red light 643 nm 30 min, CoCl2-induced hypoxia
[9] = red light 643 nm 30 min, normoxia

Compound: CC(=O)Nc1ccc(-c2c3nc(c(-c4ccc[n+](C)c4)c4ccc([nH]4)c(-c4ccc[n+](C)c4)c4nc(c(-c5ccc[n+](C)c5)c5ccc2[nH]5)C=C4)C=C3)cc1.[Cl-].[Cl-].[Cl-] [TMPyP3-CH3, 5-(4-Acetamidophenyl)-10,15,20-Tris(N-Methylpyridinium-3-Yl)Porphyrin Trichloride]
- ΦFL (fluorescence quantum yield) [1]: 0.072
- IC50 (MeWo; read-out: IC50 MeWo CoCl2): > 100 µM
- IC50 (MeWo; read-out: IC50 MeWo No CoCl2): > 100 µM
- IC50 (HDF; read-out: IC50 HDF CoCl2): > 100 µM
- IC50 (HDF; read-out: IC50 HDF No CoCl2): > 100 µM
- IC50 (A375; read-out: IC50 A375 CoCl2): > 100 µM
- IC50 (A375; read-out: IC50 A375 No CoCl2): > 100 µM
- ΦISC [2]: 0.34
- τT (lifetime of 3PS*) [2]: 0.77 ms

Compound: [Cl-].[Cl-].[Co+2] [CoCl2, Cobalt(II) chloride]
- HIF-1α protein level (Western blot, normalised to β-actin) (HIF-1α): accumulation of HIF-1α

Compound: CCCCCCCCCCCCCCCCCC(=O)Nc1ccc(-c2c3nc(c(-c4ccc[n+](C)c4)c4ccc([nH]4)c(-c4ccc[n+](C)c4)c4nc(c(-c5ccc[n+](C)c5)c5ccc2[nH]5)C=C4)C=C3)cc1.[Cl-].[Cl-].[Cl-] [TMPyP3-C17H35, 5-(4-Octadecanamidophenyl)-10,15,20-Tris(N-Methylpyridinium-3-Yl)Porphyrin Trichloride]
- IC50 ([3]; Homo sapiens, light or radiation study, read-out: IC50 in all the tested cells): ≤ 1000 nM
- ΦFL (fluorescence quantum yield) [1]: 0.105
- IC50 (MeWo; read-out: IC50 MeWo CoCl2): 0.47 ± 0.02 µM
- IC50 (MeWo; read-out: IC50 MeWo No CoCl2): 0.33 ± 0.04 µM
- SI (IC50 (HDF) / IC50 (melanoma cells)) MeWo 100 µM CoCl2 (MeWo; [8]): 1.0
- SI (IC50 (HDF) / IC50 (melanoma cells)) MeWo No CoCl2 (MeWo; [9]): 1.0
- IC50 (HDF; read-out: IC50 HDF CoCl2): 0.46 ± 0.14 µM
- IC50 (HDF; read-out: IC50 HDF No CoCl2): 0.33 ± 0.03 µM
- IC50 (A375; read-out: IC50 A375 CoCl2): 0.23 ± 0.07 µM
- IC50 (A375; read-out: IC50 A375 No CoCl2): 0.15 ± 0.08 µM
- SI (IC50 (HDF) / IC50 (melanoma cells)) A375 100 µM CoCl2 (A375; [8]): 2.0
- SI (IC50 (HDF) / IC50 (melanoma cells)) A375 No CoCl2 (A375; [9]): 2.2
- ΦISC [2]: 0.38
- τT (lifetime of 3PS*) [2]: 0.74 ms

- contribution of τ1 (% of the decay) [4]: 2%
- contribution of τ2 (% of the decay) [4]: 98%
- τFL, longer decay time τ2 [4]: 8.62 ± 0.02 ns and 8.62 ns
- τFL, short decay time τ1 [4]: 0.82 ± 0.08 ns and 0.82 ns
- ΦFL (fluorescence quantum yield) ([5]; N2-purged, TPP as reference): 0.050 ± 0.002
- λFL Q(0,0) ([5]; excitation at Soret band): 648 nm
- λFL Q(0,1) ([5]; excitation at Soret band): 713 nm
- τT (lifetime of 3PS*) [6]: 1.1 ms
- τT (lifetime of the triplet excited state) ([6]; N2-purged, 25 °C): 1100 ± 200 μs
- kq (O2) (quenching rate constant of the triplet excited state by O2) ([6]; Stern–Volmer): 1.3e+09 M⁻¹ s⁻¹
- ΦISC (quantum yield of intersystem crossing) ([6]; comparative method with TPP, estimated): 0.66
- εT-T (molar absorption coefficient of the triplet state) ([6]; singlet depletion method): 47 000 M^−1cm^−1
- ε Qx (0-0) [7]: 1900 M⁻¹ cm⁻¹
- ε Qx (1-0) [7]: 5800 M⁻¹ cm⁻¹
- ε Qy (0-0) [7]: 5200 M⁻¹ cm⁻¹
- ε Qy (1-0) [7]: 18200 M⁻¹ cm⁻¹
- ε Soret (B) [7]: 346900 M⁻¹ cm⁻¹
- λabs Qx (0-0) [7]: 645 nm
- λabs Qx (1-0) [7]: 588 nm
- λabs Qy (0-0) [7]: 545 nm
- λabs Qy (1-0) [7]: 510 nm
- λabs Soret (B) [7]: 416 nm
Compound: CC(=O)Nc1ccc(-c2c3nc(c(-c4ccc[n+]([O-])c4)c4ccc([nH]4)c(-c4ccc[n+]([O-])c4)c4nc(c(-c5ccc[n+]([O-])c5)c5ccc2[nH]5)C=C4)C=C3)cc1 [TOPyP3-CH3, 5-(4-Acetamidophenyl)-10,15,20-tris(1-oxido-3-pyridyl)porphyrin]
- phototoxicity / reduction of proliferation at 1 µM ([3]; 1 µM, irradiation 643 nm, normoxia or CoCl2-induced hypoxia): did not appear to reduce the proliferation
- IC50 (MeWo; 6 h incubation, red light 643 nm 30 min, 3.6 J/cm^2, 100 μM CoCl2 at least 2 h before porphyrin, read-out: IC50 MeWo CoCl2): > 100 µM
- IC50 (MeWo; 6 h incubation, red light 643 nm 30 min, 3.6 J/cm^2, normoxia, read-out: IC50 MeWo No CoCl2): > 100 µM
- IC50 (HDF; 6 h incubation, red light 643 nm 30 min, 3.6 J/cm^2, 100 μM CoCl2 at least 2 h before porphyrin, read-out: IC50 HDF CoCl2): > 100 µM
- IC50 (HDF; 6 h incubation, red light 643 nm 30 min, 3.6 J/cm^2, normoxia, read-out: IC50 HDF No CoCl2): > 100 µM
- IC50 (A375; 6 h incubation, red light 643 nm 30 min, 3.6 J/cm^2, 100 μM CoCl2 at least 2 h before porphyrin, read-out: IC50 A375 CoCl2): > 100 µM
- IC50 (A375; 6 h incubation, red light 643 nm 30 min, 3.6 J/cm^2, normoxia, read-out: IC50 A375 No CoCl2): > 100 µM

— publication PMC12382614, “(Oxidopyridyl)Porphyrins of Different Lipophilicity: Photophysical Properties, ROS Production and Phototoxicity on Melanoma Cells Under CoCl2-Induced Hypoxia” (Antioxidants, 2025)
